Values quoted from earlier work as cited in patent US20100062066A1, “Formulations of Tetrahydropyridine Antiplatelet Agents for Parenteral or Oral Administration” (Acusphere, Inc, priority 2006, published 2010).

Tested on: platelet aggregation
Conditions: background statement on clopidogrel enantiomers

| Structure (SMILES) | anti-aggregation activity |
| --- | --- |
| COC(=O)C(c1ccccc1Cl)N1CCc2sccc2C1 (single isomer, unassigned) [R-enantiomer] | does not exhibit any anti-aggregation activity |
| COC(=O)[C@H](c1ccccc1Cl)N1CCc2sccc2C1 (single isomer, unassigned; enantiomer 2) [S-enantiomer, 2-(2-chlorophenyl)-2-(2,4,5,6,7,7a-tetrahydrothieno[3,2-c]pyridine)-5-yl-acetic acetic acid methyl ester] | biologically active |
